Assay [1] deals with a variety of test species. Description: Post-emergence herbicidal activity (glasshouse, sprayed after 8 days cultivation, evaluated after 13 days). Format: in vivo. More on the design: key: 5=total damage to plant; 0=no damage to plant. The following applies: rate 1000 g/Ha, scale 0-5. Summed up:
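Pot-grown seedlings sprayed 8 days after sowing with active ingredient in acetone/water (50:50) plus 0.5% Tween 20. Glasshouse at 24/16 °C day/night, 14 h light, 65% humidity, watered twice daily. Damage scored after 13 days on a 0–5 scale (5 = total damage, 0 = none).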

The subject of assay [2] is a variety of test species. Description: Pre-emergence herbicidal activity (glasshouse, sprayed one day after sowing, evaluated after 13 days). It counts as in vivo. More on the design: key: 5=total damage to plant; 0=no damage to plant. The conditions noted are these: application pre-emergence, rate 1000 g/Ha, scale 0-5. Summed up: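 Compounds are applied pre-emergence as an aqueous spray, formulated in 50:50 acetone/water containing 0.5% Tween 20, to pots sown one day earlier. Plants grow in a controlled glasshouse and are scored 13 days later for damage from 0 to 5.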

Structures are written as SMILES.

With `CC1=C(Cl)C(=O)N(c2noc(C(C)(C)C)c2C#N)C1OS(C)(=O)=O` (centres unmarked) [A98], in assay [1], the “ABUTH (Abutilon theophrasti) damage score, application post-emergence” value (shortened to “ABUTH … application post-emergence”) was 5; the “ALOMY (Alopecurus myosuroides) damage score, application post-emergence” value (from here on “ALOMY … application post-emergence”) is reported as 5; the “AMARE (Amaranthus retroflexus) damage score, application post-emergence” value (“AMARE … application post-emergence” for short) turned out to be 5; the “ECHCG (Echinochloa crus-galli) damage score, application post-emergence” value (“ECHCG … application post-emergence” for short) is reported as 5. Further, in assay [1], the “SETFA (Setaria faberi) damage score, application post-emergence” value (“SETFA (Setaria faberi) damage score” for short) came to 5 and the “ZEAMX (Zea mays) damage score, application post-emergence” value (from here on “ZEAMX (Zea mays) damage score”) was 4. Also, in assay [2], the “Pre-emergence herbicidal damage score, ABUTH” value came to 5; the “Pre-emergence herbicidal damage score, ALOMY” value was 3; the “Pre-emergence herbicidal damage score, AMARE” value is recorded as 5; the “Pre-emergence herbicidal damage score, ECHCG” value is 5. In assay [2], the “Pre-emergence herbicidal damage score, SETFA” value is 5 and the “Pre-emergence herbicidal damage score, ZEAMX” value turned out to be 3.

Regarding `CCC(=O)OC1C(C)=C(Cl)C(=O)N1c1cc(C(C)(CC)CC#N)on1` (centres unmarked) [A99], in assay [1], the “ABUTH … application post-emergence” value amounted to 5; the “ALOMY … application post-emergence” value is listed as 5; the “AMARE … application post-emergence” value was found to be 5; the “ECHCG … application post-emergence” value amounted to 5. Further, in assay [1], the “SETFA (Setaria faberi) damage score” value is 5 and the “ZEAMX (Zea mays) damage score” value was 5. Besides, in assay [2], the “Pre-emergence herbicidal damage score, ABUTH” value is recorded as 5; the “Pre-emergence herbicidal damage score, ALOMY” value is given as 4; the “Pre-emergence herbicidal damage score, AMARE” value came out at 5; the “Pre-emergence herbicidal damage score, ECHCG” value is listed as 5. Further, in assay [2], the “Pre-emergence herbicidal damage score, SETFA” value was determined as 5 and the “Pre-emergence herbicidal damage score, ZEAMX” value amounted to 3.

With `CC1=C(Cl)C(=O)N(c2noc(C(C)(C)C)c2C#N)C1` [A102], in assay [1], the “ABUTH … application post-emergence” value is given as 5; the “ALOMY … application post-emergence” value turned out to be 5; the “AMARE … application post-emergence” value is listed as 5; the “ECHCG … application post-emergence” value amounted to 5. Besides, in assay [1], the “SETFA (Setaria faberi) damage score” value is reported as 5 and the “ZEAMX (Zea mays) damage score” value was 4. In assay [2], the “Pre-emergence herbicidal damage score, ABUTH” value stood at 5; the “Pre-emergence herbicidal damage score, ALOMY” value was found to be 4; the “Pre-emergence herbicidal damage score, AMARE” value turned out to be 5; the “Pre-emergence herbicidal damage score, ECHCG” value amounted to 4. Also, in assay [2], the “Pre-emergence herbicidal damage score, SETFA” value is recorded as 5 and the “Pre-emergence herbicidal damage score, ZEAMX” value is listed as 3.

Consider `COC1=C(Cl)C(=O)N(c2cc(C(C)(C)C)on2)C1O` (centres unmarked) [B1], for which, in assay [1], the “ABUTH … application post-emergence” value amounted to 5; the “ALOMY … application post-emergence” value came to 5; the “AMARE … application post-emergence” value stood at 5; the “ECHCG … application post-emergence” value is on record as 5. In assay [1], the “SETFA (Setaria faberi) damage score” value is on record as 5 and the “ZEAMX (Zea mays) damage score” value was determined as 5. For the same compound, in assay [2], the “Pre-emergence herbicidal damage score, ABUTH” value is 5; the “Pre-emergence herbicidal damage score, ALOMY” value is listed as 4; the “Pre-emergence herbicidal damage score, AMARE” value is recorded as 5; the “Pre-emergence herbicidal damage score, ECHCG” value is 5. In assay [2], the “Pre-emergence herbicidal damage score, SETFA” value turned out to be 3 and the “Pre-emergence herbicidal damage score, ZEAMX” value is on record as 4.

Consider `CNC1=C(Cl)C(=O)N(c2cc(C(C)(C)C)on2)C1O` (centres unmarked) [C1], for which, in assay [1], the “ABUTH … application post-emergence” value is 5; the “ALOMY … application post-emergence” value was determined as 4; the “AMARE … application post-emergence” value amounted to 5; the “ECHCG … application post-emergence” value amounted to 5. Besides, in assay [1], the “SETFA (Setaria faberi) damage score” value is reported as 4 and the “ZEAMX (Zea mays) damage score” value is 1. In assay [2], the “Pre-emergence herbicidal damage score, ABUTH” value is given as 3; the “Pre-emergence herbicidal damage score, ALOMY” value amounted to 2; the “Pre-emergence herbicidal damage score, AMARE” value was 5; the “Pre-emergence herbicidal damage score, ECHCG” value stood at 4. Besides, in assay [2], the “Pre-emergence herbicidal damage score, SETFA” value is listed as 4 and the “Pre-emergence herbicidal damage score, ZEAMX” value amounted to 1.

For `CN(C)C1=C(Cl)C(=O)N(c2cc(C(C)(C)C)on2)C1O` (centres unmarked) [C2], in assay [1], the “ABUTH … application post-emergence” value was found to be 5; the “ALOMY … application post-emergence” value is given as 4; the “AMARE … application post-emergence” value is on record as 5; the “ECHCG … application post-emergence” value worked out at 5. Further, in assay [1], the “SETFA (Setaria faberi) damage score” value is given as 4 and the “ZEAMX (Zea mays) damage score” value is given as 3. In assay [2], the “Pre-emergence herbicidal damage score, ABUTH” value is 1; the “Pre-emergence herbicidal damage score, ALOMY” value came to 1; the “Pre-emergence herbicidal damage score, ECHCG” value stood at 2; the “Pre-emergence herbicidal damage score, SETFA” value came to 1. In assay [2], the “Pre-emergence herbicidal damage score, ZEAMX” value came to 1.

For the compound `C=C(C)CNC1=C(Cl)C(=O)N(c2cc(C(C)(C)C)on2)C1O` (centres unmarked) [C3], in assay [1], the “ABUTH … application post-emergence” value was 5; the “ALOMY … application post-emergence” value came out at 4; the “AMARE … application post-emergence” value came out at 5; the “ECHCG … application post-emergence” value came out at 5. In addition, in assay [1], the “SETFA (Setaria faberi) damage score” value was 5 and the “ZEAMX (Zea mays) damage score” value worked out at 2. In addition, in assay [2], the “Pre-emergence herbicidal damage score, ABUTH” value amounted to 5; the “Pre-emergence herbicidal damage score, ALOMY” value is 3; the “Pre-emergence herbicidal damage score, AMARE” value amounted to 5; the “Pre-emergence herbicidal damage score, ECHCG” value is reported as 4. In addition, in assay [2], the “Pre-emergence herbicidal damage score, SETFA” value came out at 3 and the “Pre-emergence herbicidal damage score, ZEAMX” value was determined as 2.

Regarding `CC(C)(C)c1cc(N2C(=O)C(Cl)=C(NCC3CC3)C2O)no1` (centres unmarked) [C4], in assay [1], the “ABUTH … application post-emergence” value stood at 5; the “ALOMY … application post-emergence” value amounted to 5; the “AMARE … application post-emergence” value came out at 5; the “ECHCG … application post-emergence” value is reported as 5. Also, in assay [1], the “SETFA (Setaria faberi) damage score” value was determined as 5 and the “ZEAMX (Zea mays) damage score” value came out at 4. In assay [2], the “Pre-emergence herbicidal damage score, ABUTH” value is reported as 5; the “Pre-emergence herbicidal damage score, ALOMY” value amounted to 2; the “Pre-emergence herbicidal damage score, AMARE” value stood at 5; the “Pre-emergence herbicidal damage score, ECHCG” value turned out to be 5. Moreover, in assay [2], the “Pre-emergence herbicidal damage score, SETFA” value is 4 and the “Pre-emergence herbicidal damage score, ZEAMX” value was determined as 3.

Take `C#CCNC1=C(Cl)C(=O)N(c2cc(C(C)(C)C)on2)C1O` (centres unmarked) [C5, 1-(5-tert-butylisoxazol-3-yl)-4-chloro-2-hydroxy-3-(prop-2-ynylamino)-2H-pyrrol-5-one]: in assay [1], the “ABUTH … application post-emergence” value is 5; the “ALOMY … application post-emergence” value amounted to 5; the “AMARE … application post-emergence” value is listed as 5; the “ECHCG … application post-emergence” value is 5. In assay [1], the “SETFA (Setaria faberi) damage score” value is 5 and the “ZEAMX (Zea mays) damage score” value is on record as 5. In assay [2], the “Pre-emergence herbicidal damage score, ABUTH” value was determined as 5; the “Pre-emergence herbicidal damage score, ALOMY” value was found to be 3; the “Pre-emergence herbicidal damage score, AMARE” value was 5; the “Pre-emergence herbicidal damage score, ECHCG” value turned out to be 5. In assay [2], the “Pre-emergence herbicidal damage score, SETFA” value was found to be 4 and the “Pre-emergence herbicidal damage score, ZEAMX” value turned out to be 3.

For the origin of these results see patent publication US9936701B2, “Herbicidal compounds” (Syngenta Participations AG, priority 2013, dated 2018).
